Reference: article PMC9516332 (Frontiers in Oncology, 2022)
Read-outs that look alike come from different tables or passages of the source.

Tests used:
Test in all cases: Kinase panel profiling at 1 µmol/L (MSA or IMAP), percentage inhibition
Format in all cases: biochemical
[1] = target: T1, panel of 255 wild-type kinases (Homo sapiens, UniProt O15146); conditions: read-out: %-inhibition, MUSK
T1 sequence (O15146 24-869): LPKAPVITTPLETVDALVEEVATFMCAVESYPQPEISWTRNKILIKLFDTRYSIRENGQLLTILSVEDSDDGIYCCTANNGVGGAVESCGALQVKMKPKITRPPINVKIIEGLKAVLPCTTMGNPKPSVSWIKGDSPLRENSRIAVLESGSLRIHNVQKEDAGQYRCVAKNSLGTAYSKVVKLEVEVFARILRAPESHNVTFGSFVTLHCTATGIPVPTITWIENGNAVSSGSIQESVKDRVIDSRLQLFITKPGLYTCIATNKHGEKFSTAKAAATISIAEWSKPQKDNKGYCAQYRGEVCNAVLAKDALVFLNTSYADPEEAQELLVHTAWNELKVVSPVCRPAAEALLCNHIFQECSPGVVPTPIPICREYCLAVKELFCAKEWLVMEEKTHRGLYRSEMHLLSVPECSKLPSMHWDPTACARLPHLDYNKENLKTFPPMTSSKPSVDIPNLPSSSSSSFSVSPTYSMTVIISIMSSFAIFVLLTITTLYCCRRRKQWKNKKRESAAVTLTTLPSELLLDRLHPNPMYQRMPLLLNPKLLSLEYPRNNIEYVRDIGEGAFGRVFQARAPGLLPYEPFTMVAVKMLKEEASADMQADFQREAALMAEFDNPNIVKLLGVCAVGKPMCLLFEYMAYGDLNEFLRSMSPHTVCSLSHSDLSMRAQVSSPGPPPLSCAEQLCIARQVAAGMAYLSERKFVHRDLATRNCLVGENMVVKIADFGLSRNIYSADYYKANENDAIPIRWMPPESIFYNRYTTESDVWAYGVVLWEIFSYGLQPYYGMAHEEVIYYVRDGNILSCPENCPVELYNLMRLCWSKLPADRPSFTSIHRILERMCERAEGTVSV

[2] = target: panel of 255 wild-type kinases (Homo sapiens, UniProt P43405); conditions: read-out: %-inhibition at 1 µmol/L, SYK
[3] = target: panel of 255 wild-type kinases (Homo sapiens, UniProt P49137); conditions: read-out: %-inhibition at 1 µmol/L, MAPKAPK2
[4] = target: panel of 255 wild-type kinases (Homo sapiens, UniProt Q04912); conditions: read-out: %-inhibition at 1 µmol/L, RON
[5] = target: panel of 255 wild-type kinases (Homo sapiens, UniProt Q06187); conditions: read-out: %-inhibition BTK
[6] = target: panel of 255 wild-type kinases (Homo sapiens, UniProt Q16539); conditions: read-out: %-inhibition, p38α
[7] = target: panel of 255 wild-type kinases (Homo sapiens, UniProt Q16620); conditions: read-out: %-inhibition at 1 µmol/L, TRKB
[8] = target: T2, panel of 255 wild-type kinases (Homo sapiens, UniProt Q8TD19); conditions: read-out: %-inhibition, NEK9
T2 sequence (Q8TD19 1-979): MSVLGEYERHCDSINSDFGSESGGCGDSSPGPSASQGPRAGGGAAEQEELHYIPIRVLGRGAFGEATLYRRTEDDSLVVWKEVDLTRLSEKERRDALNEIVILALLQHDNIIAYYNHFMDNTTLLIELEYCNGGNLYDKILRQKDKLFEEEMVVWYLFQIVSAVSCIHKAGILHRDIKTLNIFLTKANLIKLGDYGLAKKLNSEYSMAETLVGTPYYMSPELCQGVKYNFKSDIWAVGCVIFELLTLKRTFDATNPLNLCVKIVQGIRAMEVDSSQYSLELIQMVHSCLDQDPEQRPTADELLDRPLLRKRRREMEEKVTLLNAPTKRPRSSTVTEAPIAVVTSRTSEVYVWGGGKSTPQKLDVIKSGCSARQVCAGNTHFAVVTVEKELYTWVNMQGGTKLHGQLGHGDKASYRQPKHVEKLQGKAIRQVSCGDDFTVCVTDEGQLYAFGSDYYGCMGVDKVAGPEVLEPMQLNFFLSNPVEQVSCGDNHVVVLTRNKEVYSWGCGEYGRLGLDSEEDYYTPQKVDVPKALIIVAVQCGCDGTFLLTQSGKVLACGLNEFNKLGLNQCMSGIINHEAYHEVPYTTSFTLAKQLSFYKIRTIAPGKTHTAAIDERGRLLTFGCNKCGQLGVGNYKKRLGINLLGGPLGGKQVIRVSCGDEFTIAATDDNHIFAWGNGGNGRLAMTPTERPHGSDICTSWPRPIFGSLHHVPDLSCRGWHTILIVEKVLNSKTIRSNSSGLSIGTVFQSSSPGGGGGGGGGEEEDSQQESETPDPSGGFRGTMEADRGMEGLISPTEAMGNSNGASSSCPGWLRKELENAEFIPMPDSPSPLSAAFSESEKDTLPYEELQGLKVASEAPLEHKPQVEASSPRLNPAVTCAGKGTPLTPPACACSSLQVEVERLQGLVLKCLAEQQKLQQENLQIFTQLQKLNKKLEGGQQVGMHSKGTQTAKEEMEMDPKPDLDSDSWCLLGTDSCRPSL

[9] = target: panel of 255 wild-type kinases (Homo sapiens, UniProt Q9BUB5); conditions: read-out: %-inhibition, MNK1
[10] = MUSK, 1 µmol/L single concentration
[11] = kinase SYK, 1 µmol/L single concentration
[12] = kinase MAPKAPK2, 1 µmol/L single concentration
[13] = kinase RON, 1 µmol/L single concentration
[14] = BTK kinase assay, 1 µmol/L single concentration
[15] = p38α, 1 µmol/L single concentration
[16] = kinase TRKB, 1 µmol/L single concentration
[17] = NEK9, 1 µmol/L single concentration
[18] = MNK1, 1 µmol/L single concentration

Structure (SMILES) | inhibition at 1 µM [1, 10] | inhibition at 1 µM [2, 11] | inhibition at 1 µM [3, 12] | inhibition at 1 µM [4, 13] | inhibition at 1 µM [5, 14] | inhibition at 1 µM [6, 15] | inhibition at 1 µM [7, 16] | inhibition at 1 µM [8, 17] | inhibition at 1 µM [9, 18] | inhibition at 1 µM [2] | inhibition at 1 µM [1] | inhibition at 1 µM [3] | inhibition at 1 µM [4] | inhibition at 1 µM [5] | inhibition at 1 µM [6] | inhibition at 1 µM [7] | inhibition at 1 µM [8] | inhibition at 1 µM [9]
Cc1nc(NC(=O)N2CCC[C@H]2C(N)=O)sc1-c1ccnc(C(C)(C)C(F)(F)F)c1 [alpelisib] | -8% | -23% | -16% | 7% | -0.621% | 2.59% | -2.43% | 2.8% | 2.72% |  |  |  |  |  |  |  |  | 
Cn1cc(-c2cc3c(N4CCN(c5ncc([C@@](C)(N)c6ccc(F)cc6)cn5)CC4)ncnn3c2)cn1 [avapritinib] | 63% |  | -0.02% | 48% | 13% | 0.843% | 48% | 30% | 72% | 44% |  |  |  |  |  |  |  | 
Cn1cnc2c(F)c(Nc3ccc(Br)cc3F)c(C(=O)NOCCO)cc21 [binimetinib] | -4.46% | -19% | -13% | -3.72% | -3.75% | -8% | 3.62% | -6.59% | 1.8% |  |  |  |  |  |  |  |  | 
CNC(=O)c1ccc(-c2cnc3ncc(Cc4ccc5ncccc5c4)n3n2)cc1F [capmatinib] |  |  |  |  |  |  |  |  |  | 2.11% | 1.33% | -28% | 13% | 8% | 3.37% | 16% | -1.11% | -1%
COc1cc2ncnc(Nc3ccc(F)c(Cl)c3)c2cc1NC(=O)/C=C/CN1CCCCC1 [dacomitinib] | 22% | -8% | -40% | 5% | 43% | 39% | 6% | -1.05% | 91% |  |  |  |  |  |  |  |  | 
C[C@H](Nc1ncnc2nc[nH]c12)c1cc2cccc(Cl)c2c(=O)n1-c1ccccc1 [duvelisib] | -4.45% | -2.35% | -16% | 8% | 1.85% | 5% | -0.401% | 1.7% | 0.446% |  |  |  |  |  |  |  |  | 
COC(=O)N[C@@H](C)CNc1nccc(-c2cn(C(C)C)nc2-c2cc(Cl)cc(NS(C)(=O)=O)c2F)n1 [encorafenib] | -1.72% | -20% | -11% | -1.42% | -1.36% | 35% | 7.42% | -4.26% | 4.33% |  |  |  |  |  |  |  |  | 
CN1CCN(c2ccc(C(=O)Nc3n[nH]c4ccc(Cc5cc(F)cc(F)c5)cc34)c(NC3CCOCC3)c2)CC1 [entrectinib] | 100% | -5.27% | -14% | 33% | 97% | 7% |  | 17% | -1% |  |  |  |  |  |  |  |  | 
CCc1nc(C(N)=O)c(Nc2ccc(N3CCC(N4CCN(C)CC4)CC3)c(OC)c2)nc1NC1CCOCC1 [gilteritinib] | 99% | 70% | -27% | 98% | 81% | 4% | 98% | 21% | 70% |  |  |  |  |  |  |  |  | 
CCN1CCN(c2ccc(Nc3cc(N(C)C(=O)Nc4c(Cl)c(OC)cc(OC)c4Cl)ncn3)cc2)CC1 [infigratinib] | 24% | -17% | -32% | 0.707% |  | 4.45% | 6% | 10% | -1.75% |  |  |  |  |  |  |  |  | 
O=C(Nc1cnn2ccc(N3CCC[C@@H]3c3cc(F)ccc3F)nc12)N1CC[C@H](O)C1 [larotrectinib] | 32% | -8% | -13% | 2.82% | -3.71% | -1.34% | 102% | -4.43% | -5.37% |  |  |  |  |  |  |  |  | 
C[C@H]1Oc2cc(cnc2N)-c2c(nn(C)c2C#N)CN(C)C(=O)c2ccc(F)cc21 [lorlatinib] | 47% | 16% | -14% | 11% | 1.48% | 6% |  | 6% | 6% |  |  |  |  |  |  |  |  | 
CCN1C(=O)N(c2c(F)c(OC)cc(OC)c2F)Cc2cnc3[nH]c(CN4CCOCC4)cc3c21 [pemigatinib] | 2.72% | -4.26% | -0.432% | 4.48% | -5.29% | 14% | 11% | -1.57% | -4.63% |  |  |  |  |  |  |  |  | 
FC(F)(F)c1ccc(CNc2ccc(Cc3c[nH]c4ncc(Cl)cc34)cn2)cn1 [pexidartinib] | 33% | -6% | -32% | 23% | -0.863% | 0.932% | 75% | 1.33% | 61% |  |  |  |  |  |  |  |  | 
C=CC(=O)N1CCC([C@@H]2CCNc3c(C(N)=O)c(-c4ccc(Oc5ccccc5)cc4)nn32)CC1 [zanubrutinib] | -1.31% | -6.37% | -9% | 5% |  | -1.11% | 6.58% | -2% | -4.39% |  |  |  |  |  |  |  |  | 
